Experiments:
[1] = biological target: T1, 5-hydroxytryptamine receptor 2C (Homo sapiens, UniProt P28335); experiment: Displacement of [3H]Mesulergine from human recombinant serotonin 5-HT2C expressed in CHO-K1 cells; type: cell-based
T1 sequence (P28335 whole entry): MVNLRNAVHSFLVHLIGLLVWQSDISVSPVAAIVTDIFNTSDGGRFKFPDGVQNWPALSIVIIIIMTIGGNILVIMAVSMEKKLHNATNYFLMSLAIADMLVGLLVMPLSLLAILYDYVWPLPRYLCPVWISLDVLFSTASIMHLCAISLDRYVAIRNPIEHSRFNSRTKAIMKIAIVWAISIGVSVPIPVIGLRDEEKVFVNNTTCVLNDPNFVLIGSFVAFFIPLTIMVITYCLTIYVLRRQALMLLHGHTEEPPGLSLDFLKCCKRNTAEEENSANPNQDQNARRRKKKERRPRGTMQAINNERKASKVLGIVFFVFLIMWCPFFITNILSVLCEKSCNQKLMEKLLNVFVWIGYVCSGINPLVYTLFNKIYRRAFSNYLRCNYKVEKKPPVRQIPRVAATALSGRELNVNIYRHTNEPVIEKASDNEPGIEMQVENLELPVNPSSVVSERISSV

[2] = biological target: T1, 5-hydroxytryptamine receptor 2C; experiment: Binding affinity to 5-HT2C receptor

Compound	IC50 [1] [µM]	Ki [2] [µM]
Cc1nnc(SCc2cc(=O)n3nc(C4CC4)sc3n2)[nH]1	> 10	–
CN(C)CCNC(=O)c1ccc(-n2ccc3ccccc32)s1	0.222	–
C[C@@H]1CNC[C@H]2Cc3ccc(COCC4CC4)nc3N21	–	0.004
CCNc1nc(Nc2ccccc2)c2cnn(C)c2n1	> 10	–
CCCCN(C)CCNc1nc(C)nc2oc(C)c(C(=O)OCC)c12	4.17	–
C=CCNc1nc(Nc2ccc(F)cc2)c2cnn(C)c2n1	> 10	–
CC(=O)N(CCN(C)C)c1nc2cc3c(cc2s1)OCO3	2.73	–
C[C@@H]1CN(c2ccc(C(F)(F)F)c3ccoc23)CCN1	–	0.0024
Cc1cccc(CN2CCNC(=O)C2CC(=O)O)c1 (configuration not stated)	> 10	–
Cn1ncc2c(Nc3ccc(F)cc3)nc(NCCCO)nc21	> 10	–
Cc1ccc(NC(=O)N2CCN3CCCCC3C2)cc1C (configuration not stated)	> 10	–
C[C@@H](N)Cn1ccc2cc(F)c(Cl)cc21	–	0.001
COc1cc2c(cc1OC)C1CCCN1C(C)(C)C2 (configuration not stated)	> 10	–
Cc1ccccc1NC(=O)N1CCN2CCCCC2C1 (configuration not stated)	> 10	–
Cn1ncc2c(Nc3ccc(F)cc3)nc(NC3CCCC3)nc21	> 10	–
CCn1ncc(C2=NOC(C(=O)NCCN3CCOCC3)C2)c1C (configuration not stated)	> 10	–
CCc1ccccc1NC(=O)CC1NCCNC1=O (configuration not stated)	> 10	–
Cn1ncc2c(Nc3ccc(F)cc3)nc(NCCN3CCOCC3)nc21	> 10	–
CCCNc1nc(Nc2ccccc2)c2cnn(C)c2n1	> 10	–
CC1CCCCN1CCNC(=O)c1noc2c1CCc1sccc1-2 (configuration not stated)	> 10	–
CCCNc1nc2ccc(C)cc2n2nnnc12	> 10	–
Cc1cc(C(=O)NCCN2CCOCC2)on1	> 10	–
Cc1noc(C(=O)NCCN2CCOCC2)c1Cl	> 10	–
COCCCNc1nc(Nc2ccc(F)cc2)c2cnn(C)c2n1	> 10	–
Clc1cccc(COc2cncc(N3CCNCC3)n2)c1	–	0.001
CC(=O)N(CCN(C)C)c1nc2c(F)cccc2s1	2	–

Compound	IC50 [1] [µM]	Ki [2] [µM]
CCc1cc2c(ccc3cnn(C[C@@H](C)N)c32)o1	–	0.00089
Cc1ccc(C2=NC3(CCNCC3)NC2=O)cc1C	> 10	–
CCC(=O)Nc1nn2c(-c3cccc(C)c3)nnc2s1	9.22	–
Cn1c(=O)n(C)c2cc(CNCCN3CCOCC3)ccc21	> 10	–
CN1CCN(CCNC(=O)c2cc3ccc4cccnc4c3[nH]2)CC1	> 10	–
Cc1ccc(CCNc2nc3ccc(C)cc3n3nnnc23)cc1	> 10	–
Clc1ccc(Cl)c(-c2ccnc(N3C[C@@H]4CCN[C@@H]4C3)n2)c1	–	> 20
CCOC(=O)c1noc2ncnc(N3CCN(C)CC3)c12	2.05	–
COC(=O)c1cnn2c(O)nc(C3CCNCC3)nc12	0.589	–
CCN(CC)CCn1c(NCc2ccncc2)nc2ccccc21	> 10	–
O=C1Nc2cc(Cl)c(Cl)cc2N2CCNC[C@H]12	–	0.0033
Cc1ccc2onc(CNC(=O)N3CCN(C)CC3)c2c1	8.93	–
COCCNc1nc(Nc2ccc(F)cc2)c2cnn(C)c2n1	> 10	–
CCN1Cc2cccc(CNc3ccc(C)c(F)c3)c2C1	5.63	–
CCOC(=O)c1c(C)oc2ncnc(NCCN3CCOCC3)c12	> 10	–
CCNc1nc(Nc2ccc(F)cc2)c2cnn(C)c2n1	> 10	–
CCc1nnc2c(NCCC3=CCCCC3)nc3ccccc3n12	> 10	–
CC(=O)Nc1c(C(=O)N2CCN(C)CC2)oc2ccccc12	5.29	–
CN(C)CCNC(=O)c1nc(-c2cccnc2)no1	> 10	–
Fc1cccc(F)c1-c1cc2c3c(c1)[C@H]1CNCC[C@H]1N3CCCS2	–	0.0052
Cc1cccc(C(=O)Nc2nn3c(-c4ccccc4C)nnc3s2)c1	> 10	–
CCc1nnc2c(NC)nc3ccccc3n12	5.11	–
COc1ccc2c3c([nH]c2c1)[C@@](C)(C(=O)O)NCC3	> 10	–
Cc1noc2ncnc(NCCN3CCOCC3)c12	> 10	–
CN(C)CCNC(=O)c1cc2ccccc2[nH]1	0.424	–
CCOC(=O)C1=CCc2nc(C)nc(NCCN(C)C)c21	4.48	–

— ChEMBL document CHEMBL1154058, “Identification of novel serotonin 2C receptor ligands by sequential virtual screening” (Bioorg Med Chem, 2009)
